Results from patent EP4559923A1, “ANTIHISTAMINE COMPOUND, AND PREPARATION METHOD THEREFOR AND USE THEREOF” (HC Synthetic Pharmaceutical Co., Ltd., priority 2022, dated 2024).
In brackets after ≈: the same amount, converted by molar mass.

Columns and labels:
[1] = tested on: isolated ileal smooth muscle; test: Muscle tone of isolated ileal smooth muscle of guinea pigs, compound alone; settings: Table 3, no histamine, X±s, n = 8; for Smooth muscle tone (g) After administration: 5 minutes after adding the drug; for Antispasmodic percentage (%): relative to tone before adding compound, 5 min
Procedure: (§1) The guinea pig was knocked unconscious with a wooden stick, and the abdomen was immediately dissected to separate the ileum about 15 cm in length. The contents of the intestinal segment were flushed with Tyrode's solution and placed in Tyrode's solution at a constant temperature of 37°C for later use, and oxygen was supplied simultaneously. The experimental intestinal tract (1 cm in length) was cut and placed into 20 ml of Tyrode's solution at a constant temperature of 37°C with a continuous oxygen supply. One end of the intestine was fixed on the ventilation hook and the other end was connected to the muscle tone transducer and led to the computer interface. The muscle tone value of the ileal smooth muscle was recorded with a BL system. The experiment was carried out after the intestinal segment contraction became stable.
After the ileum contraction curve stabilized, the tone values before adding the drug were recorded, then the drug or DMSO was added, and the average tone value of the ileum contraction curve at that point was recorded 5 minutes later. The operation was repeated 8 times. The antispasmodic percentage was calculated according to the following formula. Antispasmodic percentage =; (Tone value before adding subject compound−Tone value after adding subject compound)/(Tone value before adding subject compound) × 100% [formula]

histamine-induced asthma = test: Antiasthmatic effect on histamine-induced asthma in guinea pigs (latency period); assay type: in vivo; settings: X±s, n = 5; for Post-administration latency period: 1 mg/kg oral gavage, sixty minutes after administration, histamine hydrochloride spray, no asthma within 8 minutes counted as 8 minutes
Procedure: The guinea pigs were placed in a polymethyl methacrylate bell jar and a histamine hydrochloride solution was sprayed ultrasonically (0.8 mg/mL) for 40 seconds. The time point at which the guinea pigs developed asthma was recorded. The time of convulsion and fall was taken as the latency period. Guinea pigs with a latency period exceeding 180 seconds were not selected. […] The guinea pigs were administered by oral gavage at a dose of 2 mL/kg·bw. Sixty minutes after the administration, the guinea pigs were placed in bell jars, and histamine hydrochloride solution was sprayed under the same conditions as in the previous selection. The latency period for the onset of asthma was recorded. […] The results were processed statistically.

histamine = test: Muscle tone of isolated ileal smooth muscle of guinea pigs contracted with histamine; settings: Table 4, x±s, n = 8; for Smooth muscle tone (g) After addition of histamine: after 0.05 mL of histamine, before compound; for Smooth muscle tone (g) Before administration: before histamine and compound; for Antispasmodic percentage (%): relative to tone after adding histamine, 3 min
Procedure: as §1
(§2) After the ileal peristalsis curve stabilized, the tone values before adding the compound were recorded, and then 0.05 mL of histamine was added. […] The operation was repeated 8 times. The antispasmodic percentage was calculated using the following equation. Antispasmodic percentage; = (Tone value after adding histamine−Tone value after adding subject compound)/(Tone value after adding histamine) × 100% [formula]

[2] = as above; settings: Table 4; 3 minutes after adding 0.05 mL compound at maximum histamine contraction; x±s, n = 8
Procedure: as §1, §2

[3] = Solubility in water, methanol and isopropanol; settings: for solubility Isopropanol: in isopropanol; for solubility Water: in water; for solubility Methanol: in methanol
Procedure: The solubility in water, methanol, and isopropanol of the compounds of the present disclosure and the comparative compounds were measured separately.

[4] = Accelerated stability test; assay type: physicochemical; settings: 40°C ± 2°C, relative humidity 75% ± 5%; for remaining at 730 h / remaining at 1460 h / remaining at 2190 h / remaining at 4380 h: storage 75% relative humidity, read-out: Content

For `O=P(O)(O)OCCCCCN1CCC(=C2c3ccc(Cl)cc3CCc3cccnc32)CC1` [Compound III-13], the “Smooth muscle tone (g) After administration” value [1] was 1.21 ± 0.26 g, the “Smooth muscle tone (g) Before administration” value ([1]; before adding the drug) was 1.78 ± 0.25 g and the “Antispasmodic percentage (%)” value [1] was 32.02±16.85%. For the same compound, the “Post-administration latency period” value (histamine-induced asthma) was 366.81 ± 53.10 s, the “Pre-administration latency period” value (histamine-induced asthma; baseline before dosing, histamine hydrochloride spray 0.8 mg/mL for 40 seconds) was 104.38 ± 50.27 s and the “Smooth muscle tone (g) After addition of histamine” value (histamine) was 3.40 ± 0.98 g. The “Smooth muscle tone (g) Before administration” value (histamine) was 1.80 ± 0.16 g, the “Antispasmodic percentage (%)” value (histamine) was 65.58±18.20% and the “Smooth muscle tone (g) After administration” value [2] was 1.17 ± 0.20 g. The “solubility Isopropanol” value [3] was 25 mg/mL (≈ 52.4 mM) and the “solubility Water” value [3] was 32 mg/mL (≈ 67.1 mM).
With `O=P(O)(O)OCCCCN1CCC(=C2c3ccc(Cl)cc3CCc3cccnc32)CC1` [Compound IV-4] the “Smooth muscle tone (g) After administration” value [1] was 1.14 ± 0.21 g, the “Antispasmodic percentage (%)” value [1] was 33.33±20.91% and the Content ([4]; Month 0) was 99.6%. For the same compound, the Description ([4]; Month 0) was “White powder”, the Related substances ([4]; Month 0) was 0.03% and the Description ([4]; Month 1) was “White powder”. The Related substances ([4]; Month 1) was 0.04%, the Description ([4]; Month 2) was “White powder” and the Related substances ([4]; Month 2) was 0.05%. For the same compound, the Description ([4]; Month 3) was “White powder”, the Related substances ([4]; Month 3) was 0.06% and the Description ([4]; Month 6) was “White powder”. For the same compound, the Related substances ([4]; Month 6) was 0.10%, the remaining at 730 h ([4]; Month 1) was 99.6% and the remaining at 1460 h ([4]; Month 2) was 99.6%. The remaining at 2190 h ([4]; Month 3) was 99.6%, the remaining at 4380 h ([4]; Month 6) was 99.5% and the “Post-administration latency period” value (histamine-induced asthma) was 380.22 ± 51.19 s. For the same compound, the “Antispasmodic percentage (%)” value (histamine) was 66.76±19.71%, the “Smooth muscle tone (g) After administration” value [2] was 1.16 ± 0.22 g and the solubility ([3]; water) was 402 mg/mL (≈ 868 mM).
For `O=P(O)(O)OCCCCN1CCC(=C2c3ccc(Cl)cc3CCc3cccnc32)CC1` [Compound IV-5], the “Smooth muscle tone (g) After administration” value [1] was 1.19 ± 0.27 g, the “Antispasmodic percentage (%)” value [1] was 31.60±20.10% and the Content ([4]; Month 0) was 99.5%. For the same compound, the Description ([4]; Month 0) was “White powder”, the Related substances ([4]; Month 0) was 0.03% and the Description ([4]; Month 1) was “White powder”. For the same compound, the Related substances ([4]; Month 1) was 0.06%, the Content ([4]; Month 1, 43800 min) was 99.5% and the Description ([4]; Month 2) was “White powder”. The Related substances ([4]; Month 2) was 0.10%, the Content ([4]; Month 2, 87600 min) was 99.4% and the Description ([4]; Month 3) was “White powder”. For the same compound, the Related substances ([4]; Month 3) was 0.13%, the Content ([4]; Month 3, 131400 min) was 99.4% and the Description ([4]; Month 6) was “White powder”. For the same compound, the Related substances ([4]; Month 6) was 0.28%, the Content ([4]; Month 6, 262800 min) was 99.2% and the “Post-administration latency period” value (histamine-induced asthma) was 362.49 ± 50.00 s. For the same compound, the “Antispasmodic percentage (%)” value (histamine) was 65.70±20.11%, the “Smooth muscle tone (g) After administration” value [2] was 1.19 ± 0.23 g and the “solubility Isopropanol” value [3] was 1 mg/mL (≈ 2.16 mM). The “solubility Methanol” value [3] was 22 mg/mL (≈ 47.5 mM) and the “solubility Water” value [3] was 386 mg/mL (≈ 834 mM).
With `O=P(O)(O)OCCCCCN1CCC(=C2c3ccc(Cl)cc3CCc3cccnc32)CC1` [Compound IV-6] the “Smooth muscle tone (g) After administration” value [1] was 1.14 ± 0.25 g, the “Antispasmodic percentage (%)” value [1] was 34.10±18.93% and the “Post-administration latency period” value (histamine-induced asthma) was 361.94 ± 53.19 s. For the same compound, the “Antispasmodic percentage (%)” value (histamine) was 65.80±19.03%, the “Smooth muscle tone (g) After administration” value [2] was 1.18 ± 0.21 g and the “solubility Isopropanol” value [3] was 5 mg/mL (≈ 10.5 mM). The “solubility Methanol” value [3] was 30 mg/mL (≈ 62.9 mM) and the “solubility Water” value [3] was 367 mg/mL (≈ 769 mM).
In the case of `O=P(O)(O)OCCCCCN1CCC(=C2c3ccc(Cl)cc3CCc3cccnc32)CC1` [Compound IV-7], the “Smooth muscle tone (g) After administration” value [1] was 1.16 ± 0.27 g, the “Antispasmodic percentage (%)” value [1] was 31.76±18.66% and the Content ([4]; Month 0) was 99.6%. For the same compound, the Description ([4]; Month 0) was “White powder”, the Related substances ([4]; Month 0) was 0.03% and the Description ([4]; Month 1) was “White powder”. For the same compound, the Related substances ([4]; Month 1) was 0.06%, the Description ([4]; Month 2) was “White powder” and the Related substances ([4]; Month 2) was 0.09%. For the same compound, the Description ([4]; Month 3) was “White powder”, the Related substances ([4]; Month 3) was 0.13% and the Description ([4]; Month 6) was “White powder”. It also gave a Related substances ([4]; Month 6) of 0.28%, a remaining at 730 h ([4]; Month 1) of 99.6% and a remaining at 1460 h ([4]; Month 2) of 99.5%. For the same compound, the remaining at 2190 h ([4]; Month 3) was 99.5%, the remaining at 4380 h ([4]; Month 6) was 99.3% and the “Post-administration latency period” value (histamine-induced asthma) was 367.32 ± 53.01 s. The “Antispasmodic percentage (%)” value (histamine) was 66.76±19.32%, the “Smooth muscle tone (g) After administration” value [2] was 1.15 ± 0.23 g and the “solubility Isopropanol” value [3] was 4 mg/mL (≈ 8.39 mM). For the same compound, the “solubility Methanol” value [3] was 27 mg/mL (≈ 56.6 mM) and the “solubility Water” value [3] was 287 mg/mL (≈ 602 mM).
With `OCCCCN1CCC(=C2c3ccc(Cl)cc3CCc3cccnc32)CC1` [Hydroxybutyl desloratadine, hydroxybutyl desloratadine, reference compound] the “Smooth muscle tone (g) After administration” value [1] was 1.30 ± 0.23 g, the “Antispasmodic percentage (%)” value [1] was 23.53±12.32% and the “Post-administration latency period” value (histamine-induced asthma) was 279.71 ± 54.91 s. For the same compound, the “Smooth muscle tone (g) After addition of histamine” value (histamine) was 3.41 ± 0.92 g, the “Smooth muscle tone (g) Before administration” value (histamine) was 1.73 ± 0.12 g and the “Smooth muscle tone (g) After administration” value [2] was 1.44 ± 0.44 g. The “solubility Water” value [3] was “Practically insoluble”.
In the case of `OCCN1CCC(=C2c3ccc(Cl)cc3CCc3cccnc32)CC1` [Hydroxyethyl desloratadine, hydroxyethyl desloratadine, reference compound], the “Smooth muscle tone (g) After administration” value [1] was 1.30 ± 0.30 g, the “Antispasmodic percentage (%)” value [1] was 23.97±10.32% and the “Post-administration latency period” value (histamine-induced asthma) was 284.11 ± 59.10 s. The “Antispasmodic percentage (%)” value (histamine) was 57.94±11.45%, the “Smooth muscle tone (g) After administration” value [2] was 1.43 ± 0.41 g and the “solubility Water” value [3] was “Practically insoluble”.
